Earlier results, collected in US8192721B2, “Compositions useful for reducing toxicity associated with gadolinium-based contrast agents” (Verrow Pharmaceuticals, Inc., priority 2007, dated 2012).

What was measured:
[1] = healthy subjects with normal renal function
[2] = compared with underivatized β-cyclodextrin

| Compound | plasma half-life [1] | nephrotoxicity [2] |
| --- | --- | --- |
| [Gd] [gadolinium] | approximately 90 minutes | – |
| β-cyclodextrin sulfobutyl ethers [Captisol®] | – | does not exhibit the nephrotoxicity |
